What was measured:
Assay in all cases: in vitro susceptibility, MIC by mini broth dilution
Assay type in all cases: cell-based
[1] = test system: Pasteurella multocida CVCC399; details: strain CVCC399
Outline: (§1)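 Veterinary bacterial strains were grown twice on solid medium at 35 °C for 20 h. Inocula were diluted 1:200 in broth and tested against 11 two-fold compound dilutions (DMSO), in paired rows, by mini broth dilution per NCCLS guidance. MIC was the readout.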

Haemophilus parasuis = test system: Haemophilus parasuis
Outline: as §1

[2] = test system: Actinobacillus pleuropneumoniae CVCC262; details: strain CVCC262
Outline: as §1

[3] = test system: Streptococcus equines CVCC556; details: strain CVCC556
Outline: as §1

[4] = test system: Staphylococcus aureus CVCC26003; details: strain CVCC26003
Outline: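 S. aureus CVCC26003 was revived and subcultured twice, 20 h each at 35° C, on solid medium, then diluted 1:200 in CAMHB liquid medium. Compounds received an 11-step two-fold DMSO dilution in parallel duplicate rows. MIC was read by mini broth dilution per NCCLS guidance.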

| Structure (SMILES) | MIC values, Pasteurella multocida CVCC399 [1] [ug/mi] | MIC values, Haemophilus parasuis (Haemophilus parasuis) | MIC values, Actinobacillus pleuropneumoniae CVCC262 [2] [ug/mi] | MIC values, Streptococcus equines CVCC556 [3] | MIC values, Staphylococcus aureus CVCC26003 [4] |
| --- | --- | --- | --- | --- | --- |
| CC[C@H]1OC(=O)[C@H](C)[C@@H](O[C@H]2C[C@@](C)(OC)[C@](O)(CNc3ccc(C)c(C)c3)[C@H](C)O2)[C@H](C)[C@@H](O[C@@H]2O[C@H](C)C[C@H](N(C)C)[C@H]2O)[C@](C)(O)C[C@@H](C)NC[C@H](C)[C@@H](O)[C@]1(C)O [syzx-84, (2R,3S,4R,5S,8R,10R,11R,12S,13S,14R)-13-[(2,6-dideoxy-3-C-methyl-3-O-methyl-4-C-[(3,4-dimethylphenyl-amino)-methyl]-α-L-ribopyranosyl)oxy]-2-ethyl-3,4,10-trihydroxy-3,5,8,10,12,14-hexamethyl-11-[[3,4,6-trideoxy-3-(dimethylamino)-β-D-xylo-hexopyranosy]oxy]-1-oxa-7-azacyclopentadecan-15-one] | 0.25 | ≦0.25 ug/mi | 2 | ≦0.25 ug/mi | ≦0.25 ug/mi |
| CC[C@H]1OC(=O)[C@H](C)[C@@H](O[C@H]2C[C@@](C)(OC)[C@](O)(CNCCN3CCCC3)[C@H](C)O2)[C@H](C)[C@@H](O[C@@H]2O[C@H](C)C[C@H](N(C)C)[C@H]2O)[C@](C)(O)C[C@@H](C)NC[C@H](C)[C@@H](O)[C@]1(C)O [syzx-90] | 2 | 2 ug/mi | 0.5 | 0.5 ug/mi | 2 ug/mi |
| CC[C@H]1OC(=O)[C@H](C)[C@@H](O[C@H]2C[C@@](C)(OC)[C@](O)(CNCc3ccccc3F)[C@H](C)O2)[C@H](C)[C@@H](O[C@@H]2O[C@H](C)C[C@H](N(C)C)[C@H]2O)[C@](C)(O)C[C@@H](C)NC[C@H](C)[C@@H](O)[C@]1(C)O [syzx-92, (2R,3S,4R,5S,8R,10R,11R,12S,13S,14R)-13-[(2,6-dideoxy-3-C-methyl-3-O-methyl-4-C-[(2-fluorobenzyl-amino)-methyl]-α-L-ribopyranosyl)oxy]-2-ethyl-3,4,10-trihydroxy-3,5,10,12,14-hexamethyl-11-[[3,4,6-trideoxy-3-(dimethylamino)-β-D-xylo-hexopyranosy]oxy]-1-oxa-7-azacyclopentadecan-15-one] | 2 | 0.5 ug/mi | 0.5 | 0.25 ug/mi | 1 ug/mi |
| CC[C@H]1OC(=O)[C@H](C)[C@@H](O[C@H]2C[C@@](C)(OC)[C@](O)(CNc3cc(Cl)ccc3C)[C@H](C)O2)[C@H](C)[C@@H](O[C@@H]2O[C@H](C)C[C@H](N(C)C)[C@H]2O)[C@](C)(O)C[C@@H](C)NC[C@H](C)[C@@H](O)[C@]1(C)O [syzx-94, (2R,3S,4R,5S,8R,10R,11R,12S,13S,14R)-13-[(2,6-dideoxy-3-C-methyl-3-O-methyl-4-C-[(5-chloro-o-methylphenyl-amino)-methyl]-α-L-ribopyranosyl)oxy]-2-ethyl-3,4,10-trihydroxy-3,5,8,10,12,14-hexamethyl-11-[[3,4,6-trideoxy-3-(dimethylamino)-β-D-xylo-hexopyranosy]oxy]-1-oxa-7-azacyclopentadecan-15-one] | 2 | 0.5 ug/mi | 0.5 | 0.25 ug/mi | 1 ug/mi |
| CC[C@H]1OC(=O)[C@H](C)[C@@H](O[C@H]2C[C@@](C)(OC)[C@](O)(CNc3ccccc3F)[C@H](C)O2)[C@H](C)[C@@H](O[C@@H]2O[C@H](C)C[C@H](N(C)C)[C@H]2O)[C@](C)(O)C[C@@H](C)NC[C@H](C)[C@@H](O)[C@]1(C)O [syzx-95, (2R,3S,4R,5S,8R,10R,11R,12S,13S,14R)-13-[(2,6-dideoxy-3-C-methyl-3-O-methyl-4-C-[(2-fluoro-phenyl-amino)-methyl]-α-L-ribopyranosyl)oxy]-2-ethyl-3,4,10-trihydroxy-3,5,8,10,12,14-hexamethyl-11-[[3,4,6-trideoxy-3-(dimethylamino)-β-D-xylo-hexopyranosy]oxy]-1-oxa-7-azacyclopentadecan-15-one] | 2 | 2 ug/mi | 2 | 0.5 ug/mi | 2 ug/mi |

Now from value to compound:

| MIC values, Pasteurella multocida CVCC399 [1] [ug/mi] | MIC values, Haemophilus parasuis (Haemophilus parasuis) | MIC values, Actinobacillus pleuropneumoniae CVCC262 [2] [ug/mi] | MIC values, Streptococcus equines CVCC556 [3] | MIC values, Staphylococcus aureus CVCC26003 [4] | Structure (SMILES) |
| --- | --- | --- | --- | --- | --- |
| 0.25 | ≦0.25 ug/mi | 2 | ≦0.25 ug/mi | ≦0.25 ug/mi | CC[C@H]1OC(=O)[C@H](C)[C@@H](O[C@H]2C[C@@](C)(OC)[C@](O)(CNc3ccc(F)cn3)[C@H](C)O2)[C@H](C)[C@@H](O[C@@H]2O[C@H](C)C[C@H](N(C)C)[C@H]2O)[C@](C)(O)C[C@@H](C)NC[C@H](C)[C@@H](O)[C@]1(C)O [syzx-86, (2R,3S,4R,5S,8R,10R,11R,12S,13S,14R)-13-[(2,6-dideoxy-3-C-methyl-3-O-methyl-4-C-[(5-fluoropyridin-2-yl-amino)-methyl]-α-L-ribopyranosyl)oxy]-2-ethyl-3,4,10-trihydroxy-3,5,8,10,12,14-hexamethyl-11-[[3,4,6-trideoxy-3-(dimethylamino)-β-D-xylo-hexopyranosy]oxy]-1-oxa-7-azacyclopentadecan-15-one] |
| 2 | 2 ug/mi | 2 | 1 ug/mi | 4 ug/mi | CC[C@H]1OC(=O)[C@H](C)[C@@H](O[C@H]2C[C@@](C)(OC)[C@](O)(CNCCc3ccncc3)[C@H](C)O2)[C@H](C)[C@@H](O[C@@H]2O[C@H](C)C[C@H](N(C)C)[C@H]2O)[C@](C)(O)C[C@@H](C)NC[C@H](C)[C@@H](O)[C@]1(C)O [syzx-91, (2R,3S,4R,5S,8R,10R,11R,12S,13S,14R)-13-[(2,6-dideoxy-3-C-methyl-3-O-methyl-4-C-[(2-pyridin-4-yl-ethylamino)-methyl]-α-L-ribopyranosyl)oxy]-2-ethyl-3,4,10-trihydroxy-3,5,8,10,12,14-hexamethyl-11-[[3,4,6-trideoxy-3-(dimethylamino)-β-D-xylo-hexopyranosy]oxy]-1-oxa-7-azacyclopentadecan-15-one] |
| 64 | 8 ug/mi | 16 | 1 ug/mi | 32 ug/mi | CC[C@H]1OC(=O)[C@H](C)[C@@H](O[C@H]2C[C@@](C)(OC)[C@](O)(CNCC3CCNCC3)[C@H](C)O2)[C@H](C)[C@@H](O[C@@H]2O[C@H](C)C[C@H](N(C)C)[C@H]2O)[C@](C)(O)C[C@@H](C)NC[C@H](C)[C@@H](O)[C@]1(C)O [syzx-93] |
